Columns and labels:
Format in all cases: cell-based, human
IGF2 = assay: Inhibition of RA signaling in PEC in transwell (IGF2 qPCR); conditions: 5 μM, 6 days, vs control without BMS
Description: (§1) Quantitative PCR. Cells were lysed with RT buffer and total RNA was purified using RNeasy® Plus Mini kit (Qiagen, Hilden, Germany) which was reverse transcribed to cDNA using Superscript IV VILO Master Mix (Gibco, Grand Island, NY) and ran on Bio-rad T100™ Thermal Cycler according to manufacturer's protocol. Quantitative PCR was performed on StepOnePlus Real-time PCR system (Applied Biosystems, Foster City, CA) after mixing cDNA with Taqman Gene Expression Master Mix (Cat #: 4369016) and gene Taqman probe (Applied Biosystems, Foster City, CA) which can be found in Table 1. All gene expressions were normalized to housekeeping gene beta-actin and presented as log 2fold change (delta-delta CT).
Inhibition of RA signaling in PEC in Transwell: PECs were seeded at 2.5×10^5 cells/well in 24 well-plate while 2.5×10^5 cells VM were cultured in the transwell insert. Both cells were cultured using PECM:RPMI-INS medium, with […] (5 μM) only present in lower compartment with PECs, for 6 days. IGF2 RNA was harvested from PECs for qPCR analysis.

hiPSC-derived CMs = assay: Differentiation of ventricular-like CM population with BMS-189453; conditions: day 30, treated 96 h starting at day 3, vs control
Description: as §1
Differentiation of Ventricular-like CM population. Human iPS cells were maintained and differentiated to LPM with Stemolecule™ CHIR99021 for 48 h. BMS-189453 (1-2 μM, Sigma Aldrich, St. Louis, MO) was supplemented together with Stemolecule™ Wnt inhibitor IWP-4 (Stemgent, San Diego, CA) in RPMI-INS for 48 h starting day 3. Then, BMS-189453 treatment was continued after additional 48 h after withdrawal of Stemolecule™ Wnt inhibitor IWP-4 in RPMI-INS until day 9. Culture medium was then switched to RPMI supplemented with insulin containing B27 to further maintain the differentiated ventricular myocytes until use.

hiPSCs (BJR-iPS cells) = assay: Lateral plate mesoderm (LPM) induction from hiPSCs with CHIR, flow cytometry and RT-PCR
Description: HiPSC culture, maintenance and differentiation. Human BJR-iPS cells (hiPSCs) were obtained from Harvard Stem Cell Institute, and maintained in MTeSR medium (STEMCELL Technologies). hiPSCs were passaged with ReleaSR (STEMCELL Technologies, Cambridge, MA) and plated at 1:20 ratio every 7 days onto […] pre-coated with growth factor reduced (GFR)-Matrigel (Corning, Tewksbury, MA). Briefly, hiPSCs were seeded at 200,000 cells/cm^2 onto a GFR-Matrigel-coated plate and maintained in MTeSR medium for 4-5 days. To generate the lateral plate mesoderm (LPM), the cells were treated with 12 μM Stemolecule™ CHIR99021 (Stemgent, San Diego, CA) in differentiation basal medium consisting of RPMI medium supplemented with B27 without insulin (Gibco, Grand Island, NY) (RPMI-INS,) for 48 h. Then, the medium was replaced with RPMI-INS for 24 h. Next, the culture was incubated with 5 μM of Stemolecule™ Wnt inhibitor IWP-4 (Stemgent, San Diego, CA) in RPMI-INS for 48 hr before switching it back to RPMI-INS, for additional 48 hr. After that, the medium was changed to RPMI medium supplemented with insulin-containing B27, and refreshed every 2 days for long term maintenance. For PEC differentiation, LPM cells at day 3 were treated with RPMI-INS supplemented 50 ng/ml bone morphogenic protein (BMP) 4 (PeproTech, Rocky Hill, NJ), 5 ng/ml vascular endothelial growth factor (VEGF; PeproTech, Rocky Hill, NJ) and 4 μM retinoic acid (RA; Stemgent, San Diego, CA) in RPMI-INS and changed every 2 days for 96 hr. PECs were dissociated using collagenase I (Sigma Aldrich, St. Louis, MO) and 1×TrypLE Express Enzyme (Gibco, Grand Island, NY), and maintained in complete PEC medium (PECM) consisted of DMEM/F12 supplemented with 1×insulin-selenium-transferrin (ITS; Gibco, Grand Island, NY), 5 ng/ml VEGF (PeproTech, Rocky Hill, NJ), 10 μM retinol, 4 μM RA (Stemgent, San Diego, CA) and 60 μg/ml ascorbic acid (Sigma). For plating, 1 μM of ROCK inhibitor Y-27632 dihydrochloride (Tocris Bioscience, Bristol, UK) was added for 24 h to facilitate cell attachment, after which medium was switched to PECM. For PEC maintenance, differentiated PEC were passaged and seeded at 10,000/well of 24 well-plate and maintained using SB medium consisted of DMEM/F12 supplemented with 0.4 mg/ml of Albumax (Gibco, Grand Island, NY), 1×ITS (Gibco, Grand Island, NY), 60 μg/ml ascorbic acid (Sigma Aldrich, St. Louis, MO), with 2 μM TGFβ inhibitor SB431542 (Tocris Bioscience, Bristol, UK). […]
Quantitative PCR. […] Quantitative PCR was performed on StepOnePlus Real-time PCR system (Applied Biosystems, Foster City, CA) after mixing cDNA with Taqman Gene Expression Master Mix (Cat #: 4369016) and gene Taqman probe (Applied Biosystems, Foster City, CA) which can be found in Table 1. […]

ventricular-CMs = assay: IGF signaling in PEC-induced ventricular-CM proliferation (IGF1R inhibition assay, IGF2 dose-response)
PECs = assay: Stimulation of epithelial-mesenchymal transition in PECs; conditions: for PECs CD90 positive: 6 days treatment, flow cytometry; for PEC phenotype (ZO1, WT1, morphology): immunofluorescence, extended culture / 6 days
Description: Stimulation of epithelial-mesenchymal transition in PECs. Day 7 PECs were seeded at 100,000 cells/well on 24-well-plate pre-coated with 0.1% gelatin, and allowed to attach overnight in basal medium (BM) consisted of DMEM/F12 supplemented with […] of Albumax (Gibco, Grand Island, NY), 1×ITS (Gibco, Grand Island, NY), 60 μg/ml ascorbic acid (Sigma Aldrich, St. Louis, MO). 1 μM of ROCK inhibitor Y27632 (Tocris Bioscience, Bristol, UK) was added to facilitate PEC attachment for 24 h. Then, PECs were expanded to full confluency in the BM with 2 μM SB431542 (Stemgent, San Diego, CA) but without AlbuMAX II (Gibco, Grand Island, NY), for 3-4 days. EMT were initiated by adding 5 ng/ml TGFβ (R&D system, Minneapolis, MN) for the initial 3 days and 10 ng/ml bFGF (PeproTech, Rocky Hill, NJ) for the subsequent 3 days or just bFGF alone, up to 6 days. Controls were epicardial cells in basal medium or with addition of 2 μM SB431542 (Stemgent, San Diego, CA).
as §1
Flow cytometry. Cells were dissociated using trypsin, pelleted by centrifugation at 300 g for 5 min, and fixed with Fixation/Permeabilization Solution Kit according to manufacturer's protocol (BD Biosciences, San Diego, CA). Cells were washed with 2 times of 10% BD Perm/Wash Buffer (BD Biosciences, San Diego, CA) to remove fixative prior to staining. Samples were incubated with primary antibody diluted in BD Perm/Wash Buffer at 4° C. for 45 min. To remove excessive primary antibody, samples were spun at 250 g for 5 min and washed once with Perm/Wash buffer prior to labelling with Alexa Fluor 488 secondary antibody (Molecular Probes Eugene, OR) at 1:500 for 30 min. All samples were washed once with BD Perm/Wash Buffer prior to analysis with BD Accuri, BD FACS LSR Flow Cytometer (BD Biosciences, San Diego, CA) or NovoCyte Flow Cytometer (ACEA Biosciences, San Diego, CA). All flow cytometric analyses were performed using FlowJo 10.5.0 software.
Immunofluorescence labelling and microscopy (cells, spheres, aggregates). Cultured cells were fixed with cold methanol at 4° C. for 15 min, and then washed with PBS. CM-spheres, PEC-Spheres, and cardiac aggregates were fixed overnight with 4% paraformaldehyde, embedded in Histogel™ (Thermo Scientific, Kalamazoo, MI), dehydrated, and embedded in paraffin. Sections were cut at 5 μm, deparaffinized, and treated with a heat-mediated antigen retrieval technique that included a 20-min boilin 0.01 M citrate buffer (pH 7.0). Both cells and histological sections were labelled with primary antibodies (Table 1) overnight at 4° C. Donkey anti rabbit AlexaFluor 488 and donkey anti-mouse AlexaFluor 546 and 647 (Molecular Probes Eugene, OR) were used as secondary antibodies at 1:500 and nuclei were counterstained with DAPI (Sigma Aldrich, St. Louis, MO). All labelled cells were visualized using Nikon Eclipse Ti fluorescence microscope (Nikon Instruments, Melville, NY), and processed with NIS element imaging software or ImageJ.

[1] = 48 h CHIR treatment, day 3, RT-PCR vs hiPSC
[2] = day 3, 48 h CHIR treatment, flow cytometry
[3] = 6 days, RT-PCR vs SB-treated PECs

## CC1(C)CC=C(c2ccccc2)c2cc(/C=C/c3ccc(C(=O)O)cc3)ccc21 [BMS, BMS189453]
IGF2
  IGF2 expression in co-cultured PECs: significantly reduced
hiPSC-derived CMs
  ventricular genes MYH7 and MYL2 expression: significantly upregulated

## Cc1c[nH]c(-c2cnc(NCCNc3ccc(C#N)cn3)nc2-c2ccc(Cl)cc2Cl)n1 [CHIR, CHIR99021]
hiPSCs (BJR-iPS cells); [1]
  pluripotency markers (OCT3/4, SOX2, NANOG) expression: significant downregulation
  primitive streak, lateral plate mesoderm and cardiac progenitor marker expression: significant upregulation
hiPSCs (BJR-iPS cells); [2]
  LPM progenitors expressing KDR: 88.0±3.6%
  LPM progenitors expressing PDGFRA: 73.7±4.3%

## C[C@]1(O)C[C@@H](c2nc(-c3ccc4ccc(-c5ccccc5)nc4c3)c3c(N)nccn32)C1 [Linsitinib]
ventricular-CMs; treated with 1 μM, 3 days, PEC coculture
  cTnT+ EdU+ CMs: 7.0±0.4%

## NC(=O)c1ccc(-c2nc(-c3ccc4c(c3)OCO4)c(-c3ccccn3)[nH]2)cc1 [SB, SB431542]
PECs
  PECs CD90 positive: 1.1±0.1%
  PEC phenotype (ZO1, WT1, morphology): maintain the cuboidal epithelial phenotype with defined ZO1 expression

## IGF2: IGF2 protein added to ventricular CMs
ventricular-CMs; IGF2 addition, dose-response
  cTnT+ EdU+ CMs: significantly increased

## TGFβ
PECs
  PECs CD90 positive: 28.7±3.5%
  PEC phenotype (ZO1, WT1, morphology): ZO1 disarrangement, cell and nucleus enlargement, and WT1-expression loss
PECs; [3]
  ACTA2, DDR2 and POSTN expression: significant increases

## bFGF: bFGF growth factor (PeproTech), 10 ng/ml
PECs
  PECs CD90 positive: 95.3±0.7%
  PEC phenotype (ZO1, WT1, morphology): ZO1 disarrangement, cell and nucleus enlargement, and WT1-expression loss
PECs; [3]
  ACTA2, DDR2 and POSTN expression: significant increases
  SNAI1 expression: upregulation
  fibroblast markers TCF21 and VIM expression: significant upregulation

From patent publication US20240368552A1, “PRE-EPICARDIAL CELLS AND USES THEREOF” (The General Hospital Corporation, priority 2021, published 2024)
